In patent US4587245A, “Method of treating neuropsychic disturbances by benzodiazepine derivatives and composition therefor” (Sanofi, priority 1976, dated 1986):
Read-outs that look alike come from different tables or passages of the source.

Assays:
[1] = test system: mice; test: Anxiolytic activity: 4 plate test; assay type: in vivo; conditions: oral, 45 minutes after administration, lowest dose with significant effect
Experimental: (§1) The products according to the invention were subjected to pharmacological tests in mice in order to determine their activity on the central nervous system. We shall indicate below the various tests to which the products were subjected.
(§2) In all cases the products were administered orally.
Anxiolytic activity: 4 plate test
The device is a parllelopiped chamber of which the floor consists of 4 metal plates of equal area. The experimenter can create a difference of potential which corresponds to a current of intensity 0.35 mA for a duration of 0.2 second, between each plate. Each time a mouse passes from one plate to the other, it receives an electric shock.
The anxiolytic agents cause an indifference to these electric shock and as a result the treated mice cross from one plate to another more frequently than the comparison mice. 45 minutes after administration of the product to be studied, the mice are placed in the chamber for 1 minute and the number of shocks received is measured and compared with the number of shocks received by the comparison animals. The results are expressed as a percentage increase in the number of shocks received by the treated animals relative to the comparison animals (which amounts to a percentage effect for a given dose), or as a threshold dose (TD) which is the lowest dose which produces a significant effect.

[2] = test system: mice; test: Toxicity; assay type: in vivo; conditions: oral
Experimental: as §1, §2
Finally, for certain products, the LDo in mg/kg (for oral administration) has been provided.

[3] = Drug disposition studies after oral administration; assay type: in vivo, several animal species and man
From the text: The originality of the mechanism of action of CM 6912 has been determined by the appearance profile of active metabolites after oral administration.

[4] = test system: central receptor site of the benzodiazepines; test: Affinity for the central benzodiazepine receptor site, displacement of 3H-flunitrazepam in vitro; assay type: binding; conditions: mice and rats
Experimental: Studies were performed in mice and rats in order to evaluate the respective affinities of CM 6912 and of its metabolites on the central receptor site of the benzodiazepines.

[5] = test system: motility of mice; test: Spontaneous actography; assay type: in vivo; conditions: oral
Experimental: as §1, §2
1. Spontaneous actography
The animals are placed in individual cages through which pass two beams which strike two photoelectric cells.
During their movements, the animals (mice) intercept the beams and cause a recording on the impulse counters.
The variations in the motility of the treated animals are expressed in percentages relative to comparison animals; the sign-indicates a reduction (in percent) of the motility of the subjects.

[6] = test system: electric shock convulsions in mice; test: Anti-convulsive activity in relation to electric shock; assay type: in vivo; conditions: Mus musculus, oral, treated 1 hour beforehand, 12.5 V, 0.5 second, read-out: Anti-convulsive action Electric shock ED50
Experimental: as §1, §2
Anti-convulsive activity in relation to electric shock
An alternating current of 12.5 V is applied for 0.5 second by means of corneal electrodes to batches of 12 mice treated 1 hour beforehand with the product to be studied. The untreated mice subjected to this electric shock undergo a convulsion of the tonic type.

[7] = test system: mice pulling themselves up on a horizontal bar; test: Traction test; assay type: in vivo; conditions: Mus musculus, oral, 50% of mice can no longer pull themselves up
Experimental: as §1, §2
This consists of observing whether the animals (mice) are capable of pulling themselves up on a horizontal bar gripped by the front paws.
The results are expressed as the 50% effective dose (ED50), which is the dose (in mg/kg) for which 50% of the mice can no longer pull themselves up.

[8] = test system: equilibration of mice; test: Rotating rod test: equilibration; assay type: in vivo; conditions: Mus musculus, oral, 50% of mice fall
Experimental: as §1, §2
3. Rotating rod test: equilibration
The results are expressed as the 50% effective dose (ED50) which is the dose (in mg/kg) for which 50% of the mice fall during the test.

[9] = test system: pentylenetetrazol (cardiazol) convulsions in mice; test: Anti-convulsive activity in relation to cardiazol; assay type: in vivo; conditions: Mus musculus, oral, cardiazol 125 mg/kg intraperitoneally, protects 50% of animals, read-out: Anti-convulsive action Cardiazol ED50
Experimental: as §1, §2
Anti-convulsive activity in relation to cardiazol
When administered intraperitoneally at a dose of 125 mg/kg, pentylenetetrazol (or cardiazol) causes the appearance of lethal convulsions in 100% of the mice treated.
The active products administered orally prior to the cardiazol oppose the appearance of the convulsions and possibly allow the test animals to survive.
The results are expressed as the ED50, that is to say as the dose (in mg/kg) which protects 50% of the animals.

[10] = test system: man; test: Therapeutic evaluation in man; assay type: in vivo; conditions: daily dosage of 2 mg
Experimental: For this purpose, a pharmaceutical composition containing 2 mg of CM 6912 is administered once a day.

[11] = test system: rats; test: Approach-avoidance conflict procedure in Skinner boxes (dissociation of anxiolytic and sedative activities); assay type: in vivo, male Wistar rats; conditions: intraperitoneal; for ED50: Rattus norvegicus, ip, 0.5 h, 30 minutes before the test
Experimental: Male Wistar rats are trained in Skinner boxes (Campden) in an approach-avoidance conflict procedure (Davidson and Cook, Psychopharmacologia 1969, 15, 159). The session lasts 30 minutes and consists of a multiple VI 30 sec/FR 3 schedule (sequence: 10 minutes VI+2 minutes FR+10 minutes VI+2 minutes FR+6 minutes VI). During the conflict periods, signalled by a light cue every 3d press delivers simultaneously a pellet and an electric shock. […] Lever presses are authomatically recorded by a microcomputer: non punished responses during the VI schedule and punished responses during the FR periods. A representative benzodiazepine of formula (I) above (R3=ethyl, R4=F; Code No. CM 6912) has been injected by intraperitoneal route 30 minutes before the test.

[12] = oral, several animal species and man
[13] = dose 0.5 mg/kg, minus sign = reduction

Compound | Anxiolysis 4 plates threshold dose (TD) [1] | Toxicity LD. [2] [mg/kg] | displacement of 3H-flunitrazepam in vitro [4] | ED50 [6] [mg/kg] | ED50 [7] [mg/kg] | ED50 [8] [mg/kg] | ED50 [9] [mg/kg] | other results
CCOC(=O)C1N=C(c2ccccc2F)c2cc(Cl)ccc2NC1=O (stereo not shown) [CM 6912, 7-chloro-3-ethoxycarbonyl-5-(2-fluorophenyl)-2-oxo-2,3-dihydro-1H-benzodiazepine-1,4] | 1 | > 300 | weak displacers | 12 | 10 | 5 | 0.6 | biotransformation [3, 12]: biotransformed into the free acid; stability in the gastro-intestinal tract [3, 12]: stable in the gastro-intestinal tract; Actography, variation in motility relative to comparison animals ([5]; dose 33 mg/kg, minus sign = reduction): -23%; adverse effect in man [10]: without adverse effect; anxiolytic properties in man [10]: potent anxiolytic properties; ED50 ([11]; read-out: anxiolytic activity ED50 (increase in punished responding)): 1.66 mg/kg; ED50 ([11]; read-out: sedative activity ED50 (decrease in unpunished responding)): 16 mg/kg; dissociation of the anxiolytic and sedative activities [11]: statistically significant
CCOC(=O)C1N=C(c2ccccc2)c2cc(Cl)ccc2NC1=O (stereo not shown) [CM 4279, reference compound] | 10 | > 300 | – | > 500 | 100 | > 100 | 9 | Actography, variation in motility relative to comparison animals ([5]; dose 100 mg/kg): none
O=C1CN=C(c2ccccc2F)c2cc(Cl)ccc2N1 [de-carbethoxy analog] | – | – | very potent | – | – | – | – | –
CCOC(=O)C1N=C(c2ccccc2Cl)c2cc(Cl)ccc2NC1=O (stereo not shown) [CM 7101, 7-chloro-3-ethoxycarbonyl-5-(2-chlorophenyl)-2-oxo-2,3-dihydro-1H-benzodiazepine-1,4] | 0.5 | > 300 | – | 12 | 6 | 6 | 0.75 | Actography, variation in motility relative to comparison animals [5, 13]: -58%
O=C(O)C1N=C(c2ccccc2F)c2cc(Cl)ccc2NC1=O (stereo not shown) [free acid] | – | – | weak displacers | – | – | – | – | activity of metabolite ([3]; metabolite of CM 6912): inactive metabolite
COC(=O)C1N=C(c2ccccc2Cl)c2cc(Cl)ccc2NC1=O (stereo not shown) [compound 7442] | 0.1 | > 300 | – | 32 | 5 | 8 | 0.4 | Actography, variation in motility relative to comparison animals [5, 13]: -57%
O=C1Nc2ccc(Cl)cc2C(c2ccccc2F)=NC1O (stereo not shown) [3-hydroxy analog] | – | – | very potent | – | – | – | – | –
